Consider five compounds from patent publication US20060111350A1, “Solid forms of linezolid and processes for preparation thereof” (priority 2004, published 2006).

Data set [1] is described as follows: Thermal stability of crystal forms upon heating (Table 4).
For data set [2] the following is noted: below about 85°; cited from earlier work.
Data set [3] is described as follows: Stability and hygroscopicity of linezolid Form VI stored at 0-100% relative humidity. The format is physicochemical. As to the method:
The stability and hygroscopicity of linezolid Form VI was tested by storing it for 19 days at a relative humidity of between 0 and 100% at room temperature.

The nature of data set [4]: Stability of linezolid Form X stored at 0-100% relative humidity. The format is physicochemical. As to the method:
The stability of linezolid Form X was tested by storing it for 8 days at a relative humidity of between 0 and 100% at room temperature.

Setting [5] is: 19 days, room temperature, relative humidity 80%.
The mark [6] stands for this setting: 19 days, room temperature, relative humidity 100%.
[7] abbreviates: 8 days, room temperature, relative humidity 100%.

With `CC(=O)NC[C@H]1CN(c2ccc(N3CCOCC3)c(F)c2)C(=O)O1` [Form V, (S)—N-[[3-[3-Fluoro-4-(4-morpholinyl)phenyl]-2-oxo-5-oxazo-lidinyl]methyl]-acetamide], in data set [1] (heating at about 60° C. to about 130° C.), the “Thermal stability (transformation into other forms upon heating)” value was “thermally stable”.
For `CC(=O)NC[C@H]1CN(c2ccc(N3CCOCC3)c(F)c2)C(=O)O1` [Form II], in data set [2], the “Relative stability of the crystal form” value is given as “most stable form”.
On to `CC(=O)NC[C@H]1CN(c2ccc(N3CCOCC3)c(F)c2)C(=O)O1` [Form TIII, (S)—N-[[3-[3-Fluoro-4-(4-morpholinyl)phenyl]-2-oxo-5-oxazo-lidinyl]methyl]-acetamide], for which the “Crystal form after heating” value is given as “TIII” in data set [1] (heating temp. 60 °C, listed as TIII) and “TIII” in data set [1] (heating temp. 130 °C).
With `CC(=O)NC[C@H]1CN(c2ccc(N3CCOCC3)c(F)c2)C(=O)O1` [Form VI, (S)—N-[[3-[3-Fluoro-4-(4-morpholinyl)phenyl]-2-oxo-5-oxazo-lidinyl]methyl]-acetamide], the Solvent content was 0.4% in data set [3] (19 days, room temperature, relative humidity 0%); 0.4% in data set [3] (19 days, room temperature, relative humidity 20%); 0.4% in data set [3] (19 days, room temperature, relative humidity 40%); 0.3% in data set [3] (19 days, room temperature, relative humidity 60%); 31.7% in data set [3] (setting [5]); 53.2% in data set [3] (setting [6]). The compound further displayed a Solvent content in data set [3] (As is (before storage)) of 0.9%. Moreover, the “Crystal Form” value is “VI + Amorphous” in data set [3] (setting [5]) and “Amorphous” in data set [3] (setting [6]). For the same compound, the water content in data set [3] (As is (before storage)) was found to be 0.7%. Moreover, the Form conversion entry in data set [3] (at 80-100% RH) is on record as “converts to Amorphous Linezolid”. Moreover, in data set [3] (between 0-60% RH), the Stability and hygroscopicity result was “stable and non-hygroscopic”. Also, the Hygroscopicity entry in data set [3] (on high relative humidity) is given as “hygroscopic”.
On to `CC(=O)NC[C@H]1CN(c2ccc(N3CCOCC3)c(F)c2)C(=O)O1` [Form X, (S)—N-[[3-[3-Fluoro-4-(4-morpholinyl)phenyl]-2-oxo-5-oxazo-lidinyl]methyl]-acetamide], for which the Solvent content in data set [4] (8 days, room temperature, relative humidity 0%) stood at 1.6%; in data set [4] (8 days, room temperature, relative humidity 20%), 1.5%; in data set [4] (8 days, room temperature, relative humidity 40%), 1.4%; in data set [4] (8 days, room temperature, relative humidity 60%), 2.0%; in data set [4] (8 days, room temperature, relative humidity 80%), 2.4%; in data set [4] (setting [7]), 0.7%. Besides, the Solvent content in data set [4] (As is (before storage)) is 1.9 (water content 1.9) %. Further, the “Crystal Form” value in data set [4] (setting [7]) was “Form X + II”. Also, the water content in data set [4] (As is (before storage)) is 1.9 (water content 1.9) %. In addition, in data set [4] (at 100% RH), the Form conversion entry is on record as “some of Form X converts to Form II”. The Stability entry in data set [4] (between 0-80% RH) was “stable”. In addition, the “Crystal form after heating” value in data set [1] (heating temp. 60 °C, listed as X) is “Amorphous”.
